Laboratory results: BigSolDB 2.1

NC(=O)c1c(F)c(F)c(F)c(F)c1F
in water
Conditions	solubility (mole fraction)
291.8 K	0.00018
297.5 K	0.00026
303.3 K	0.00034
310.3 K	0.0006

O=c1[nH]c(=O)n([C@H]2C[C@H](O)[C@@H](CO)O2)cc1I
in water
Conditions	solubility (mole fraction)
302.2 K	0.00013
312.6 K	0.00021
317.8 K	0.00026
321.9 K	0.00039
323 K	0.00027
326.2 K	0.00041
332 K	0.00051
336 K	0.00047
343.1 K	0.00076
348.6 K	0.00089
349.8 K	0.00102

O=C(Nc1c(F)c(F)c(F)c(F)c1F)C(=O)Nc1c(F)c(F)c(F)c(F)c1F
Conditions	solubility (mole fraction)
in 2-butanone, 284.2 K	0.00793
in 2-butanone, 287.1 K	0.00854
in 2-butanone, 289.4 K	0.00897
in 2-butanone, 293.4 K	0.00984
in 2-butanone, 303.3 K	0.0126
in 2-butanone, 314.7 K	0.0168
in 2-butanone, 323.9 K	0.0209
in 2-butanone, 327.2 K	0.023
in 2-butanone, 331.1 K	0.025
in 2-butanone, 333.4 K	0.0271
in 2-butanone, 336.9 K	0.029
in ethyl acetate, 281.1 K	0.00822
in ethyl acetate, 285.6 K	0.00934
in ethyl acetate, 291.9 K	0.0105
in ethyl acetate, 293.5 K	0.0116
in ethyl acetate, 303.7 K	0.0138
in ethyl acetate, 310.9 K	0.017
in ethyl acetate, 321.4 K	0.0206
in ethyl acetate, 325.1 K	0.0229
in ethyl acetate, 326.7 K	0.0251
in ethyl acetate, 332.2 K	0.0274
in ethyl acetate, 334.9 K	0.0295
